Read-outs that look alike come from different tables or passages of the source.
Tests used:
[1] = system: patients presenting a clinically isolated syndrome (CIS)
Procedure: Subgroup analyses related to the primary efficacy variable were performed with respect to demographics and CIS characteristics at initial attack onset (gender, age, and type of unifocal manifestation and steroid treatment for the initial attack), and MRI findings (disease dissemination/activity) at study baseline.
No correction for multiplicity was done for any of the following post-hoc analyses. • 1. Subgroup analysis of the primary endpoint for: gender, age, type of unifocal manifestation and corticosteroid use for the initial attack employed the Cox proportional hazards model, as for the principal analysis. Subgroup analyses of proportion of subjects converted to CDMS according to MRI activity at baseline was analyzed using Logistic Regression, as in the fourth secondary endpoint. • 2. Number of relapses: analysis of number of relapses during the placebocontrolled phase, during the entire study and on a yearly basis was performed using the Poisson regression. • 3. Time to confirmed Expanded Disability Status Scale (EDSS) progression: Progression of disability was defined as worsening of at least 1 point in EDSS sustained over 2 consecutive measurements which are at least 6 months apart. Analysis of time to confirmed EDSS progression was performed employing the Cox proportional hazards model.
Subgroups were created for demographics and CIS characteristics at onset (gender, age, and type of unifocal presentation and steroid treatment for the initial attack), and MRI findings (disease dissemination/activity) at study baseline.

[2] = system: patients presenting a clinically isolated syndrome (CIS); remark: listed apart in the source
Procedure: A clinical trial was undertaken to assess the effect of treatment with GA compared to placebo on the time to conversion to CDMS, as determined by Poser (the occurrence of the second clinical attack) during the double-blind phase.
Subjects receive their first dose of study medication at the baseline visit. 20 mg GA formulation is injected once daily by subcutaneous route via pre-filled syringe manufactured by Teva Pharmaceutical Industries Ltd., Israel. Subjects are evaluated at study centers at baseline, at months 1, 3, and every 3 months thereafter.
The duration of the double-blind phase is 36 months (3 years) or until subject's conversion to CDMS, whichever comes first. Conversion to CDMS is counted when the subject's symptoms are accompanied by observed objective neurological changes, consistent with: • a) an increase of at least 0.5 in the EDSS score or one grade in the score of two or more of the seven Functional Systems (FS); or • b) two grades in the score of one of FS as compared to the previous evaluation.
The subject must not be undergoing any acute metabolic changes such as fever or other medical abnormality. A change in bowel/bladder function or in cognitive function must not be entirely responsible for the changes in EDSS or FS scores.

[3] = system: patients presenting a clinically isolated syndrome (CIS); remark: listed apart in the source
Procedure: A clinical trial was undertaken to assess, within the time frame of the up to 3-years placebo-controlled study period, the effect of GA on clinical and MRI parameters.
Subjects received their first dose of study medication at the baseline visit. 20 mg GA formulation was injected once daily by subcutaneous route via pre-filled syringe manufactured by Teva Pharmaceutical Industries Ltd., Israel. The duration of the double-blind phase is 36 months (3 years) or until subject's conversion to CDMS, whichever comes first.

[4] = system: subjects with clinically isolated syndrome (CIS) suggestive of MS; settings: MRS, NAA/Cr over time
Procedure: Single voxel magnetic resonance spectroscopy (MRS) exams were performed at baseline and once a year subsequently. Scans were quantified locally and sent to the MRS Unit (Montreal) where they were deemed acceptable or in need of repeat (either acquisition or analysis). The MRS endpoint is the change in the ratio of N-acetylaspartate/creatine (NAA/Cr) ratio over time. NAA is seen only in neuronal tissue and is a marker of neuronal integrity; reducing with most types of insults to the brain. Cr is often used as an internal reference because it is relatively stable.
MRS scans were performed after T2-weighted fast-spin-time echo (FSE/TSE) scans and before gadolinium injection. MRS data was obtained from a region of central white matter using a 90-180-180 (PRESS) volume selective sequence to excite a volume of 100 mm×100 mm×20 mm (range 80-100 mm×80-100 mm×20 mm) centered on the body of the corpus callosum using a long echo time (TR 2000, TE 272). The rotation of the acquisition region was the same as for the main image series. […] The region was centered left-right so that the brain mid-line passes centrally through the region. The region was positioned anterior-posterior so that the anterior corners and posterior corners are equidistant from the skull.

[5] = system: patients presenting a clinically isolated syndrome (CIS); settings: early treatment vs delayed start of treatment with GA
Procedure: A clinical trial was undertaken to assess, within the time frame of 5 years, the neuroprotective effect of early versus delayed treatment with GA as reflected by clinical and MRI parameters measuring the accumulated irreversible brain tissue damage.
Subjects are evaluated at study centers at baseline, at months 1, 3, and every 3 months thereafter. MRI evaluations of T1 and T2 variables are assessed at screening, baseline, at 3 months, and every 3 months thereafter until conversion to CDMS or up to 3 years. An additional MRI assessment is performed upon conversion to CDMS only if no MRI is performed within the previous month. MRI is then performed at the next scheduled visit and every 6 months thereafter.
Brain atrophy, as measured by the change in brain volume according to the Structural Image Evaluation of Normalized Atrophy (SIENA) technique is assessed at baseline, every 12 months and at conversion to CDMS.
The volume of black holes is assessed at baseline and at every 6 months.
The count of new T1-weighted hypointense lesions is assessed every 6 months.
Exploratory endpoints are defined to assess the neuroprotective effect as reflected by clinical and MRI parameters comparing the group originally assigned to GA treatment with that randomized to receive placebo treatment (delayed start of treatment with GA). The 5-year data cohort will be used for inference. […]

[6] = system: patients with RRMS; settings: cited from earlier work
[7] = 20 mg once daily s.c. vs placebo

L-glutamic acid polymer with L-alanine, L-lysine, L-tyrosine, acetate (salt) [glatiramer acetate]
Risk Reduction with Copaxone over Placebo ([1]; Age <30 years, listed as Copaxone ®): 53% | Risk Reduction with Copaxone over Placebo ([1]; Age <30 years, listed as Copaxone®): 53% | % CDMS in the placebo-controlled phase ([1]; Age >=30 years): 15% | % CDMS in the placebo-controlled phase ([1]; Corticosteroids use for initial attack: No): 9% | Risk Reduction with Copaxone over Placebo ([1]; Corticosteroids use for initial attack: No, listed as Copaxone ®): 54% | Risk Reduction with Copaxone over Placebo ([1]; Corticosteroids use for initial attack: No, listed as Copaxone®): 54% | % CDMS in the placebo-controlled phase ([1]; Corticosteroids use for initial attack: Yes): 16% | % CDMS in the placebo-controlled phase ([1]; Sex: Female): 14% | Risk Reduction with Copaxone over Placebo ([1]; Sex: Female, listed as Copaxone ®): 48% | Risk Reduction with Copaxone over Placebo ([1]; Sex: Female, listed as Copaxone®): 48% | % CDMS in the placebo-controlled phase ([1]; Sex: Male): 11% | Risk Reduction with Copaxone over Placebo ([1]; Sex: Male, listed as Copaxone ®): 43% | Risk Reduction with Copaxone over Placebo ([1]; Sex: Male, listed as Copaxone®): 43% | % CDMS in the placebo-controlled phase ([1]; T1 Gd-enhancing lesions at baseline: T1 = 0 lesions): 14% | Risk Reduction with Copaxone over Placebo ([1]; T1 Gd-enhancing lesions at baseline: T1 = 0 lesions, listed as Copaxone ®): 44% | Risk Reduction with Copaxone over Placebo ([1]; T1 Gd-enhancing lesions at baseline: T1 = 0 lesions, listed as Copaxone®): 44% | % CDMS in the placebo-controlled phase ([1]; T1 Gd-enhancing lesions at baseline: T1 >= 1 lesions): 11% | Risk Reduction with Copaxone over Placebo ([1]; T1 Gd-enhancing lesions at baseline: T1 >= 1 lesions, listed as Copaxone ®): 71% | Risk Reduction with Copaxone over Placebo ([1]; T1 Gd-enhancing lesions at baseline: T1 >= 1 lesions, listed as Copaxone®): 71% | % CDMS in the placebo-controlled phase ([1]; T2 lesions at baseline: 2-8 lesions): 3% | Risk Reduction with Copaxone over Placebo ([1]; T2 lesions at baseline: 2-8 lesions, listed as Copaxone ®): 67% | Risk Reduction with Copaxone over Placebo ([1]; T2 lesions at baseline: 2-8 lesions, listed as Copaxone®): 67% | % CDMS in the placebo-controlled phase ([1]; T2 lesions at baseline: >=9 lesions): 22% | Risk Reduction with Copaxone over Placebo ([1]; T2 lesions at baseline: >=9 lesions, listed as Copaxone ®): 58% | Risk Reduction with Copaxone over Placebo ([1]; T2 lesions at baseline: >=9 lesions, listed as Copaxone®): 58% | % CDMS in the placebo-controlled phase ([1]; Unifocal manifestation: Optic): 6% | Risk Reduction with Copaxone over Placebo ([1]; Unifocal manifestation: Optic, listed as Copaxone ®): 66% | Risk Reduction with Copaxone over Placebo ([1]; Unifocal manifestation: Optic, listed as Copaxone®): 66% | % CDMS in the placebo-controlled phase ([1]; Unifocal manifestation: Spinal): 7% | Risk Reduction with Copaxone over Placebo ([1]; Unifocal manifestation: Spinal): 17% | prolongation of the quartile time to CDMS [2, 7]: 115% | reduction of the risk in developing clinically definite MS (CDMS) [2, 7]: 44% | Kaplan-Meier time to conversion to CDMS, 25% percentile ([2]; 20 mg once daily s.c., ITT, placebo 336 days): 722 days | patients who developed CDMS at the end of the two-year study ([3]; 20 mg once daily s.c., placebo 43 percent): 25% | probability of development of CDMS over 3 years (Kaplan-Meier estimates) ([3]; 20 mg once daily s.c., placebo 65%): 36.4% | treatment effect in decreasing the rate of new T2 lesions at LOV ([3]; 20 mg vs placebo, last observed value): 58% | reduction of new T1 Gd-enhancing lesions in comparison to placebo, annual comparison ([3]; 12 months): > 4.8 fold | reduction of new T2 lesions in comparison to placebo, annual comparison ([3]; 12 months): 6 fold | reduction of new T2 lesions in comparison to placebo, annual comparison ([3]; 24 months): 4 fold | reduction of new lesions in comparison to placebo, annual comparison of T1 Gd-enhancing lesions ([3]; 24 months): approximately 3.8 fold | Number of new T2 lesions at LOV, max ([3]; GA 20 mg): 15 | Number of new T2 lesions at LOV, median ([3]; GA 20 mg): 0 | Number of new T2 lesions at LOV, min ([3]; GA 20 mg): 0 | Number of new T2 lesions at LOV, mean ([3]; GA 20 mg, placebo 1.8): 0.7 | reduction of new T1 Gd-enhancing lesions in comparison to placebo, annual comparison ([3]; ITT cohort, 12 months): > 4.5 fold | reduction of new T2 lesions in comparison to placebo, annual comparison ([3]; ITT cohort, 12 months): > 3 fold | reduction of new T2 lesions in comparison to placebo, annual comparison ([3]; ITT cohort, 24 months): approximately 4 fold | reduction of new lesions in comparison to placebo, annual comparison of T1 Gd-enhancing lesions ([3]; ITT cohort, 24 months): approximately 3 fold | reduction of the cumulative number of new T1 Gd-enhancing lesions at LOV compared to placebo ([3]; last observed value): 619 | cumulative number of new T1 Gd-enhancing lesions at LOV ([3]; placebo 1.19): 0.46 | axonal damage [4]: reduces | 5-year relapse rate [5]: decreased | level of disability (EDSS Score) [5]: reduced | proportion of patients who convert to CDMS during the 5-year treatment period [5]: decreased | time from randomization to conversion to CDMS during the 5-year period [5]: increased | total number of enhancing lesions as measured by MRI ([6]; 20 and 40 mg/day subcutaneous, MS patients): reduce | efficacy in reducing the frequency of relapses ([6]; patients with RRMS): well established

From patent US20100305023A1, “Method of Delaying The Onset of Clinically Definite Multiple Sclerosis” (Teva Pharmaceutical Industries, Ltd., priority 2007, published 2010)
